From PMC13079941 (Proceedings of the National Academy of Sciences of the …, 2026)

Target: T1, CsRD21a (Citrus sinensis, UniProt A0ACB8KUT6)
T1 construct: gene KPL71_016607; full-length, untagged, expressed transiently in Nicotiana benthamiana; secreted, prodomain removed in planta, active forms 25-35 kDa; concentrated apoplastic fluid, not purified
Experiment: competitive activity-based protein profiling, DCG-04 / streptavidin-HRP blot
Type: biochemical
Conditions: apoplastic fluid; 30 min preincubation; 50 mM sodium acetate pH 5.0, 5 mM DTT, room temperature

T1 sequence (A0ACB8KUT6 139-468): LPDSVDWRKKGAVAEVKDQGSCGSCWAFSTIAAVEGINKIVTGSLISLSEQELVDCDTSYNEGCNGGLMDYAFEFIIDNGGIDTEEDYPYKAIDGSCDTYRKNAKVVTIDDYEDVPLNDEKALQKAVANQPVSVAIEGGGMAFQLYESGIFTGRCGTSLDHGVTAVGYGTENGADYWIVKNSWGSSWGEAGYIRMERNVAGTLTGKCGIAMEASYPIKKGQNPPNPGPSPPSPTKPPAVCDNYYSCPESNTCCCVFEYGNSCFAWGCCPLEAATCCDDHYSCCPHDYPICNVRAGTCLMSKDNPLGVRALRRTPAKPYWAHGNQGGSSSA

CC(C)C[C@H](NC(=O)[C@H]1O[C@@H]1C(=O)O)C(=O)NCCCCNC(=N)N [E-64]
decrease of DCG-04 labelling, dosage-dependent: This signal decreased in the presence of the cysteine protease inhibitor E-64 in a dosage-dependent manner
